Test results reported in US20050171101A1 (Fujisawa Pharmaceutical Co. Ltd., priority 2002, published 2005).
Structures can show the parent of a compound that is named as a salt.

target: recombinant human PARP (Homo sapiens, UniProt P09874); test: PARP inhibitory activity (In vitro assay); format: biochemical; details: 32P-NAD, 0.05 mM NAD, activated DNA, pH8.0, 15 minutes at room temperature
Procedure: PARP inhibitory activity (In vitro assay)
The recombinant human PARP (5.3 mg protein/ml) was incubated with a test compound in a 100 μl reaction buffer containing an indicated concentration of 1 mCi/ml ^32P-NAD, 50 mM Tris-HCl, 25 mM MgCl2, 1 mM DTT (dithiothreitol), 0.05 mM NAD (nicotinamide adenine dinucleotide) and 1 mg/ml activated DNA, pH8.0. Incubation was carried out for 15 minutes at a room temperature, and the reaction was stopped by addition of 200 μl of ice-cold 20% tricholoroacetic acid followed by rapid filtration through GF/B filters. The […] was treated with scintillation fluid and acid-insoluble counts were measured for quantification of unit activity. PARP inhibitory activity was calculated by using the following formula: PARP inhibitory activity (%)=[1-(count obtained with test compound)/(count obtained with vehicle only)]×100

Sequence of recombinant human PARP (P09874 whole entry): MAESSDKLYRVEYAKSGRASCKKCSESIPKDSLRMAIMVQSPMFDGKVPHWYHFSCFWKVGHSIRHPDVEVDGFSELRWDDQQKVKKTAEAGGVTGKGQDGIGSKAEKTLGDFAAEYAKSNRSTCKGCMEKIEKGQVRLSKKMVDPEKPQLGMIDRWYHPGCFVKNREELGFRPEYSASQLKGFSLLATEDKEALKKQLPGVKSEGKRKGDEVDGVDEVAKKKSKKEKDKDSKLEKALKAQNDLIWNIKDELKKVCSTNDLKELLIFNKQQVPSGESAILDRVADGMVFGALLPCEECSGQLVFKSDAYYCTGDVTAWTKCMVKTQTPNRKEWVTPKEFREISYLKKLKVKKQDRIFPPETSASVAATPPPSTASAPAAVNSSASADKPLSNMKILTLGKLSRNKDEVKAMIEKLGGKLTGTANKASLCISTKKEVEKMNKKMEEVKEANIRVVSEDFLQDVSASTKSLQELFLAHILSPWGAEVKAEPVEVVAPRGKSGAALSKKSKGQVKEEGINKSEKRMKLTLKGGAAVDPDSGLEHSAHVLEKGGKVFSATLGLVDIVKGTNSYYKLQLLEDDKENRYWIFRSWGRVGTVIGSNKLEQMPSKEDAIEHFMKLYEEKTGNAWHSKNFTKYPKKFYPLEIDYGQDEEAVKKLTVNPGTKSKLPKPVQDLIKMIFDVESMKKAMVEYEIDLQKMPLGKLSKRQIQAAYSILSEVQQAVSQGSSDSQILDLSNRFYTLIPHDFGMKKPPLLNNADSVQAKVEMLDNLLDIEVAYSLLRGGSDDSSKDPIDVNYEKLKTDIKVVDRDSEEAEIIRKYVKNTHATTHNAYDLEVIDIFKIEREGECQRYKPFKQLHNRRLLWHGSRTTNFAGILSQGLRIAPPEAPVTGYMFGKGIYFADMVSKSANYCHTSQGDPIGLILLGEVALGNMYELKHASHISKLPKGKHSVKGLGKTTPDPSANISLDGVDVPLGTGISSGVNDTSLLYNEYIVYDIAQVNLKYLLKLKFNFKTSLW

Compound	IC50
O=c1[nH]c2ccc(CCCN3CC=C(c4ccc(F)cc4)CC3)cc2c2ccccc12 [Example 2, 2-{3-[4-(4-fluorophenyl)-3,6-dihydro-1 (2H)-pyridyl]propyl}-6(5H)-phenanthridinone]	< 100 nM
O=c1[nH]c2cc(CN3CC=C(c4ccc(Cl)cc4)CC3)ccc2c2c1CCCC2 [Example 15, 3-{[4-(4-Chlorophenyl)-3,6-dihydro-1(2H)-pyridyl]methyl}-7,8,9,10-tetrahydro-6(5H)-phenanthridinone]	< 100 nM
Cc1ccc(C2CCN(Cc3ccc4c5c(c(=O)[nH]c4c3)CCCC5)CC2)cc1 [Example 30, 3-{[4-(4-methylphenyl)-1-piperidyl]methyl}-7,8,9,10-tetrahydro-6(5H)-phenanthridinone hydrochloride]	< 100 nM
O=c1[nH]c2cc(CN3CCC(O)(c4ccccc4)CC3)ccc2c2c1CCCC2 [Example 35, 3-[(4-hydroxy-4-phenyl-1-piperidyl)methyl]-7,8,9,10-tetrahydro-6(5H)-phenanthridinone hydrochloride]	< 100 nM
O=c1[nH]c2c(Oc3ccccn3)cccc2c2c1CCCC2 [Example 42]	< 100 nM
O=c1[nH]c2cc(CN3CCN(c4ccc(Cl)cn4)CC3)ccc2c2ccccc12 [Example 52, 3-{[4-(5-chloro-2-pyridyl)-1-piperazinyl]methyl}-6(5H)-phenanthridinone dihydrochloride]	< 100 nM
O=c1[nH]c2cc(CN3CCCCC3)ccc2c2ccccc12 [Example 60, 3-(1-piperidylmethyl)-6(5H)-phenanthridinone]	< 100 nM
Cc1ccc(C2CCN(Cc3ccc4c(c3)[nH]c(=O)c3ccccc34)CC2)nc1 [Example 63, 3-{[4-(5-methyl-2-pyridyl)-1-piperidyl]methyl}-6(5H)-phenanthridinone]	< 100 nM
